Reference: PubChem BioAssay (NCI)
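Assay format: 96-well plates, 48-hour exposure. At the GI50, growth is halved. At the TGI there is no net growth.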

Tests used:
Experiment in all cases: inhibition of tumour cell growth, NCI panel, 48 h
[1] = test system: 786-0 renal
[2] = test system: A498 renal
[3] = test system: A549 NSCLC
[4] = test system: ACHN renal
[5] = test system: BT-549 breast
[6] = test system: CAKI-1 renal
[7] = test system: CCRF-CEM leukemia
[8] = test system: COLO 205 colon
[9] = test system: DU-145 prostate
[10] = test system: EKVX NSCLC
[11] = test system: HCC-2998 colon
[12] = test system: HCT-116 colon
[13] = test system: HCT-15 colon
[14] = test system: HL-60(TB) leukemia
[15] = test system: HOP-62 NSCLC
[16] = test system: HOP-92 NSCLC
[17] = test system: HS 578T breast
[18] = test system: HT29 colon
[19] = test system: IGROV1 ovarian
[20] = test system: K-562 leukemia
[21] = test system: KM12 colon
[22] = test system: LOX IMVI melanoma
[23] = test system: M14 melanoma
[24] = test system: MALME-3M melanoma
[25] = test system: MCF7 breast
[26] = test system: MDA-MB-231 breast
[27] = test system: MDA-MB-435
[28] = test system: MOLT-4 leukemia
[29] = test system: NCI-H226 lung
[30] = test system: NCI-H23 lung
[31] = test system: NCI-H460 lung
[32] = test system: NCI-H522 lung
[33] = test system: NCI/ADR-RES ovarian
[34] = test system: OVCAR-3 ovarian
[35] = test system: OVCAR-4 ovarian
[36] = test system: OVCAR-5 ovarian
[37] = test system: OVCAR-8 ovarian
[38] = test system: PC-3 prostate
[39] = test system: RPMI-8226 leukemia
[40] = test system: RXF 393 renal
[41] = test system: SF-268 CNS
[42] = test system: SF-295 CNS
[43] = test system: SF-539 CNS
[44] = test system: SK-MEL-2 melanoma
[45] = test system: SK-MEL-28 melanoma
[46] = test system: SK-MEL-5 melanoma
[47] = test system: SK-OV-3 ovarian
[48] = test system: SN12C renal
[49] = test system: SNB-19 CNS
[50] = test system: SNB-75 CNS
[51] = test system: SR leukemia
[52] = test system: SW-620 colon
[53] = test system: T-47D breast
[54] = test system: TK-10 renal
[55] = test system: U251 CNS
[56] = test system: UACC-257 melanoma
[57] = test system: UACC-62 melanoma
[58] = test system: UO-31 renal

`CN(O)c1nc(N(C)O)nc(N2CCOCC2)n1` was tested, and the GI50 [1] was 3.47 µM, the TGI [1] was 74 µM and the GI50 [2] was 14.9 µM. It also gave a TGI [2] of over 100 µM, a GI50 [3] of 2.94 µM and a TGI [3] of over 100 µM. It also gave a GI50 [4] of 1.1 µM, a TGI [4] of over 100 µM and a GI50 [5] of 5.34 µM. For the same molecule, the TGI [5] was over 100 µM, the GI50 [6] was 1.08 µM and the TGI [6] was over 100 µM. It also gave a GI50 [7] of 0.793 µM, a TGI [7] of over 100 µM and a GI50 [8] of 3.69 µM. It also gave a TGI [8] of over 100 µM, a GI50 [9] of 4.93 µM and a TGI [9] of over 100 µM. For the same molecule, the GI50 [10] was 1.9 µM, the TGI [10] was over 100 µM and the GI50 [11] was 8.75 µM. For the same molecule, the TGI [11] was over 100 µM, the GI50 [12] was 1.07 µM and the TGI [12] was over 100 µM. It also gave a GI50 [13] of 0.637 µM, a TGI [13] of over 100 µM and a GI50 [14] of 16 µM. For the same molecule, the TGI [14] was over 100 µM, the GI50 [15] was 2.27 µM and the TGI [15] was over 100 µM. For the same molecule, the GI50 [16] was 8.77 µM, the TGI [16] was over 100 µM and the GI50 [17] was 64.2 µM. It also gave a TGI [17] of over 100 µM, a GI50 [18] of 4.67 µM and a TGI [18] of over 100 µM. The GI50 [19] was 2.27 µM, the TGI [19] was over 100 µM and the GI50 [20] was over 100 µM. It also gave a TGI [20] of over 100 µM, a GI50 [21] of 15.5 µM and a TGI [21] of over 100 µM. It also gave a GI50 [22] of 1.67 µM, a TGI [22] of over 100 µM and a GI50 [23] of 2.92 µM. The TGI [23] was 57 µM, the GI50 [24] was 12.3 µM and the TGI [24] was over 100 µM. The GI50 [25] was 3.95 µM, the TGI [25] was over 100 µM and the GI50 [26] was 7 µM. It also gave a TGI [26] of over 100 µM, a GI50 [27] of 6.6 µM and a TGI [27] of over 100 µM. The GI50 [28] was 7.09 µM, the TGI [28] was over 100 µM and the GI50 [29] was 7.64 µM. The TGI [29] was over 100 µM, the GI50 [30] was 12.4 µM and the TGI [30] was over 100 µM. For the same molecule, the GI50 [31] was 0.8 µM, the TGI [31] was over 100 µM and the GI50 [32] was 4.03 µM. It also gave a TGI [32] of over 100 µM, a GI50 [33] of 2.56 µM and a TGI [33] of over 100 µM. For the same molecule, the GI50 [34] was 10.2 µM, the TGI [34] was over 100 µM and the GI50 [35] was 2.02 µM. It also gave a TGI [35] of over 100 µM, a GI50 [36] of 41.2 µM and a TGI [36] of over 100 µM. For the same molecule, the GI50 [37] was 3.85 µM, the TGI [37] was over 100 µM and the GI50 [38] was 7.82 µM. The TGI [38] was over 100 µM, the GI50 [39] was 3.85 µM and the TGI [39] was over 100 µM. The GI50 [40] was 6.15 µM, the TGI [40] was over 100 µM and the GI50 [41] was 5.7 µM. It also gave a TGI [41] of over 100 µM, a GI50 [42] of 2.57 µM and a TGI [42] of over 100 µM. The GI50 [43] was 4.1 µM, the TGI [43] was over 100 µM and the GI50 [44] was 7.7 µM. For the same molecule, the TGI [44] was over 100 µM, the GI50 [45] was 7.08 µM and the TGI [45] was over 100 µM. It also gave a GI50 [46] of 4.09 µM, a TGI [46] of over 100 µM and a GI50 [47] of 12.6 µM. For the same molecule, the TGI [47] was over 100 µM, the GI50 [48] was 7.48 µM and the TGI [48] was over 100 µM. For the same molecule, the GI50 [49] was 7.35 µM, the TGI [49] was over 100 µM and the GI50 [50] was 27.2 µM. The TGI [50] was over 100 µM, the GI50 [51] was 4.01 µM and the TGI [51] was over 100 µM. The GI50 [52] was 11.2 µM, the TGI [52] was over 100 µM and the GI50 [53] was 8.07 µM. The TGI [53] was over 100 µM, the GI50 [54] was 5.89 µM and the TGI [54] was over 100 µM. It also gave a GI50 [55] of 1.25 µM, a TGI [55] of over 100 µM and a GI50 [56] of 5.57 µM. The TGI [56] was 92.2 µM, the GI50 [57] was 4.12 µM and the TGI [57] was over 100 µM. The GI50 [58] was 2.41 µM and the TGI [58] was over 100 µM.

For `O=C(CCCCCCCCC(=O)N/N=C\c1ccccc1O)N/N=C\c1ccccc1O`, the GI50 [1] was 0.334 µM, the TGI [1] was 1.99 µM and the GI50 [2] was 3.1 µM. The TGI [2] was 26.9 µM, the GI50 [3] was 0.81 µM and the TGI [3] was over 25.2 µM. For the same molecule, the GI50 [4] was 0.235 µM, the TGI [4] was 20.1 µM and the GI50 [5] was 0.982 µM. It also gave a TGI [5] of over 100 µM, a GI50 [6] of 0.318 µM and a TGI [6] of 14.9 µM. The GI50 [7] was 0.228 µM, the TGI [7] was 17.4 µM and the GI50 [8] was 2.63 µM. The TGI [8] was over 35.2 µM, the GI50 [9] was 0.579 µM and the TGI [9] was 15.5 µM. For the same molecule, the GI50 [10] was 1.53 µM, the TGI [10] was over 69.6 µM and the GI50 [11] was 2.92 µM. It also gave a TGI [11] of over 100 µM, a GI50 [12] of 0.459 µM and a TGI [12] of 15.2 µM. For the same molecule, the GI50 [13] was 0.298 µM, the TGI [13] was over 100 µM and the GI50 [14] was 0.203 µM. For the same molecule, the TGI [14] was 0.687 µM, the GI50 [15] was 0.418 µM and the TGI [15] was 4.72 µM. For the same molecule, the GI50 [16] was 0.216 µM, the TGI [16] was 0.889 µM and the GI50 [17] was 3.55 µM. For the same molecule, the TGI [17] was 41.6 µM, the GI50 [18] was 4.62 µM and the TGI [18] was over 36.6 µM. For the same molecule, the GI50 [19] was 1.73 µM, the TGI [19] was 54.5 µM and the GI50 [20] was 0.398 µM. For the same molecule, the TGI [20] was 27.8 µM, the GI50 [21] was 0.785 µM and the TGI [21] was over 40.3 µM. For the same molecule, the GI50 [22] was 0.273 µM, the TGI [22] was 6.07 µM and the GI50 [23] was 0.306 µM. For the same molecule, the TGI [23] was 1.78 µM, the GI50 [24] was 0.566 µM and the TGI [24] was 17.7 µM. For the same molecule, the GI50 [25] was 1.99 µM, the TGI [25] was over 100 µM and the GI50 [26] was 0.225 µM. It also gave a TGI [26] of 32.2 µM, a GI50 [27] of 0.704 µM and a TGI [27] of over 100 µM. For the same molecule, the GI50 [28] was 0.338 µM, the TGI [28] was 7.37 µM and the GI50 [29] was 0.49 µM. It also gave a TGI [29] of 11 µM, a GI50 [30] of 0.75 µM and a TGI [30] of 21.9 µM. For the same molecule, the GI50 [31] was 0.27 µM, the TGI [31] was 1.47 µM and the GI50 [32] was 0.257 µM. For the same molecule, the TGI [32] was over 100 µM, the GI50 [33] was 0.514 µM and the TGI [33] was 25.4 µM. For the same molecule, the GI50 [34] was 0.343 µM, the TGI [34] was over 51.2 µM and the GI50 [35] was 0.33 µM. It also gave a TGI [35] of over 100 µM, a GI50 [36] of 3.35 µM and a TGI [36] of over 90.3 µM. It also gave a GI50 [37] of 0.349 µM, a TGI [37] of 5.8 µM and a GI50 [38] of 0.855 µM. For the same molecule, the TGI [38] was over 58.6 µM, the GI50 [39] was 1.03 µM and the TGI [39] was 35.8 µM. The GI50 [40] was 0.353 µM, the TGI [40] was 2.95 µM and the GI50 [41] was 0.342 µM. It also gave a TGI [41] of 9.72 µM, a GI50 [42] of 1.07 µM and a TGI [42] of 31.7 µM. It also gave a GI50 [43] of 0.452 µM, a TGI [43] of 17.4 µM and a GI50 [44] of 0.469 µM. It also gave a TGI [44] of over 36.8 µM, a GI50 [45] of 1.08 µM and a TGI [45] of over 100 µM. It also gave a GI50 [46] of 0.231 µM, a TGI [46] of 1.12 µM and a GI50 [47] of 0.899 µM. For the same molecule, the TGI [47] was 15.6 µM, the GI50 [48] was 0.7 µM and the TGI [48] was over 42.4 µM. The GI50 [49] was 0.763 µM, the TGI [49] was over 59.4 µM and the GI50 [50] was 1.82 µM. The TGI [50] was 15.3 µM, the GI50 [51] was 0.16 µM and the TGI [51] was 12.9 µM. It also gave a GI50 [52] of 1.28 µM, a TGI [52] of 24.1 µM and a GI50 [53] of 2.89 µM. The TGI [53] was over 49.4 µM, the GI50 [54] was 1.87 µM and the TGI [54] was over 46.7 µM. It also gave a GI50 [55] of 0.308 µM, a TGI [55] of 9.14 µM and a GI50 [56] of 0.368 µM. The TGI [56] was 4.07 µM, the GI50 [57] was 0.331 µM and the TGI [57] was 5.54 µM. For the same molecule, the GI50 [58] was 0.197 µM and the TGI [58] was 3.9 µM.
